In assay [1] the test system is mixed neuronal and glial neocortical cells. The assay is described as follows: Protection of cultured neuronal cells against glutamate neurotoxicity (LDH release). Format: cell-based, Sprague-Dawley rat. The following applies: Rattus norvegicus, glutamate 500 μM for 5 min, 24 h, 100% = glutamate without test compound, read-out: % OF DEAD; for neurotoxicity, % of glutamate alone at 0.1 µM: test compound 0.1 μM; for neurotoxicity, % of glutamate alone at 1 µM: test compound 1 μM; for neurotoxicity, % of glutamate alone at 5 µM: test compound 5 μM; for neurotoxicity, % of glutamate alone at 10 µM: test compound 10 μM. As for the experimental part:
Cultures of mixed neuronal and glial neocortical cells were prepared from 18-day-old Sprague-Dawley rat foetuses (IFFA-Credo, St. Germain l'Arbresle, France). The cerebral hemispheres were rapidly dissected in Hanks' BSS supplemented with glucose (6 g/l), incubated in trypsine-EDTA (5 min at 35° C.), rinsed with calcium/magnesium-free glucosed Hanks' and mechanically dissociated. After centrifugation (10 min, 70 g), the cells were resuspended in the culture medium consisting of 87% Eagle's minimal essential medium (MEM), 10% horse serum and 0.6% glucose (without antibiotics), and plated on poly-d-lysine (10 μg/cm^2) coated coverslips, in 24-well dishes, to a final density of 4×10^5 cells/cm^2 in 400 μl/well. The cultures were maintained for 2-3 weeks at 35° C. in a humidified atmosphere (95% air/5% CO2), one-third of the medium being replaced every 4 days.
After 17-20 days in vitro, the culture medium was replaced with 400 μl of experimental medium (EM supplemented with glucose) containing the test compound for 5 min. at room temperature. This medium was replaced with the experimental medium containing the same concentration of test compound plus glutamate 500 μM for another 5 min. Finally, the cells were rinsed with the experimental medium and incubated for 24 h. The control cultures had received the same number of replacements of medium as the experimental ones, with standard experimental medium. The 100% neurotoxicity level was based on the effect of glutamate 500 μM for 5 min. The protective effect was quantified by estimation of the activity of the lactate dehydrogenase (LDH) released in the medium. Culture supernatant (100 μl) was added to phosphate buffer (875 μl, 125 mM, pH 7.6) containing 0.3 mM pyruvic acid and β-NADH (25 μl, 10 mg/ml). The decrease in absorbance was measured at 340 nm (Lockhart, et al., Brain Res. 630:36-40 (1993)).
Four concentrations of test compounds were used, i.e., 10, 5, 1, and 0.1 μM. The dead-cell population was determined by LDH enzymic activity and the results, presented in Table II, were compared with the 100% mortality based on the 500 μM glutamate treated cells without test compound protection.
(In general: LDH in the medium is a marker of cell lysis.)

The target of the next assay is PCP receptor. The assay is described as follows: [^3H]TCP binding to the PCP receptor (rat brain minus cerebellum homogenate). The following applies: inhibition of [^3H]TCP (1 nM) specific binding, 30 min, 25° C., pH 7.7.

Experimental for PCP receptor: 1-[1-(2-thienyl)-2-methylcyclohexyl]piperidine (TCP) binding to the PCP receptor was performed as previously described. […] The rat brain (minus the cerebellum) was removed and homogenized with an Ultraturax (Ika Werke, Staufen, Germany, maximum setting) in a 50 mM Tris/HCl, pH 7.7 buffer for 20 s at 4° C. The homogenate was then centrifuged at 49,000 g for 20 min. and the pellet was resuspended in the same buffer and the homogenization-centrifugation steps performed a second time. The final pellet was resuspended in 10 volumes of a 50 mM Tris/Hepes, pH 7.7 buffer and used without further purification.
The homogenate (0.5-0.8 mg protein/ml) was incubated with N-[1-(2-thienyl) cyclohexyl]3,4-[^3 H]piperidine ([^3 H]TCP, 1 nM) (Amersham, Arlington Heights, Ill, 48 Ci/mmol) in a 5 mM Tris/Hepes, pH 7.7 buffer in the absence (total binding) and in the presence of the test compounds for 30 min. at 25° C. in a volume of 0.5 ml. […] The filters were rinsed twice with 5 ml of a 50 mM NaCl, Tris HCl 10 mM, pH 7.7 buffer and the radioactivity retained counted in 3.5 ml ACS (Amersham) with an Excel 1410 (LKB) liquid scintillation spectrophotometer. The nonspecific binding was determined in parallel experiments in the presence of 100 μM unlabeled TCP.

As to `C[C@@H]1CCCC[C@]1(c1cccs1)N1CCCCC1` [(1S,2R)1-[1-(2-Thienyl)-2-methylcyclohexyl]-piperidine], in assay [1], the neurotoxicity, % of glutamate alone at 0.1 µM was 90.3%; the neurotoxicity, % of glutamate alone at 1 µM was 32.9%; the neurotoxicity, % of glutamate alone at 5 µM came out at 27.2%; the neurotoxicity, % of glutamate alone at 10 µM was determined as 29.7%.

Take `C[C@@H]1CCCC[C@]1(c1ccco1)N1CCCCC1` [(1S,2R)1-[1-(2-Furanyl)-2-methylcyclohexyl]-piperidine]: the IC50 (as a rule, the concentration that gives 50% inhibition) on PCP receptor is 5.5 ± 1.9 nM. Further, in assay [1], the neurotoxicity, % of glutamate alone at 0.1 µM is 92.5%; the neurotoxicity, % of glutamate alone at 1 µM was found to be 83.6%; the neurotoxicity, % of glutamate alone at 5 µM is 43.3%; the neurotoxicity, % of glutamate alone at 10 µM came to 32.1%.

The values above are taken from patent US5972952A, “Neuroprotective pharmaceutical composition containing stereoisomers of arylcyclohexylamines” (Le Centre National De La Recherche Scientifique, priority 1996, dated 1999).
